In patent US10204708B2, “System and method for deriving parameters for homeostatic feedback control of an individual” (Agency for Science, Technology and Research, priority 2012, dated 2019) one finds FT4, clinical outcome and TSH data, which are given here for two molecules.

What all share (format): in vivo, human
Assay [1] in a line: thyroid function test, free thyroxin [FT4] level of patient under treatment. The text has this: (§1) The method 10 is particularly suited to derive the hypothalamus pituitary (HP) characteristic of the individual. The HP characteristic of, the individual relates the level of thyroid-stimulating hormone [TSH] level in milliunits per liter (mU/L) and the corresponding free thyroxin [FT4] level in picomoles per liter (pmol/L) in the individual. In the following description, homeostatic measurements would be understood to refer to measurements of the level of [TSH] and corresponding [FT4] in an individual.
(§2) Each homeostatic measurement comprises a value of a [TSH] reading and a corresponding [FT4] reading. To determine the S and φ parameters for the individual, at least two well distinguishable homeostatic, measurements (i.e. ([FT4]1, [TSH]1) and ([FT4]2, [TSH]2)) from the individual are obtained with a predetermined time gap in between each measurement. The measurements are performed on samples taken near the same time of the day by the same analytical measurement method and ideally applied by one and the same person whenever feasible to minimise errors that can compromise the accuracy of the model estimates.
(§3) Preferably, the individual measurements are performed in a fasting condition and separated by 6 weeks while under medical treatment for a hypothyroidism or hyperthyroidism state with the replacement hormone for [T4] leading to a state of clinical euthyroidism.
(§4) Any method known for measuring homeostatic parameters would be suitable, for example, various types of chromatography, immunochemistry or other methods known to accurately measure the amount of a homeostatic expression product, as long as the same measurement method is applied by one and the same person.

Assay [2] in a line: clinical course of hypothyroid Graves' disease patient on L-thyroxin. The conditions noted are these: Example 3 patient, 75 mcg L-T4 daily. The text has this:
They were thus started on L-thyroxin from day 456 at 25 mcg daily, and escalated to 50 mcg daily from day 715.

Assay [3] in a line: thyroid function test, thyroid-stimulating hormone [TSH] level of patient under treatment.
Description: as §1, §2, §3, §4

Where [4] appears, read: Example 1 patient, day 210, Rx LT4 50 (mcg daily), after radioiodine-131 ablation.
The mark [5] stands for this setting: Example 1 patient, day 269, Rx LT4 50 (mcg daily).
Setting [6] is: Example 6 patient, 1 Oct. 2007, LT4 100.
Where [7] appears, read: Example 6 patient, 2 May 1997, LT4 25.
Where [8] appears, read: Example 6 patient, 3 May 2005, LT4 75.
Where [9] appears, read: Example 6 patient, 5 Oct. 2005, LT4 100.
Where [10] appears, read: Example 6 patient, 6 May 2011, LT4 100.
[11] abbreviates: Example 6 patient, 10 Dec. 2010, LT4 100.
[12] abbreviates: Example 6 patient, 12 Feb. 2007, LT4 100.
Where [13] appears, read: Example 6 patient, 14 May 2007, LT4 100.
[14] abbreviates: Example 6 patient, 16 Aug. 1999, LT4 50.
Setting [15] is: Example 6 patient, 16 Mar. 2012, LT4 100.
Where [16] appears, read: Example 6 patient, 17 Aug. 1998, LT4 50.
The mark [17] stands for this setting: Example 6 patient, 19 Oct. 2006, LT4 100.
Where [18] appears, read: Example 6 patient, 21 Jun. 2006, LT4 100.
[19] abbreviates: Example 6 patient, 23 Jan. 2006, LT4 100.
Setting [20] is: Example 6 patient, 24 Apr. 2002, LT4 50.
Setting [21] is: Example 6 patient, 26 Oct. 1999, LT4 50.
[22] abbreviates: Example 6 patient, 28 Jul. 2008, LT4 100.
[23] abbreviates: Example 1 patient, day 0, Rx CMZ 20.
The mark [24] stands for this setting: Example 1 patient, day 53, Rx CMZ 10.
The mark [25] stands for this setting: Example 1 patient, day 86, Rx CMZ 30.
The mark [26] stands for this setting: Example 1 patient, day 125, Rx CMZ 10.

For `N[C@@H](Cc1cc(I)c(Oc2cc(I)c(O)c(I)c2)c(I)c1)C(=O)O` [LT4, levothyroxin], the FT4 in assay [1] (setting [4]) is 5 pmol/L; in assay [1] (setting [5]), 10 pmol/L; in assay [1] (Example 4 patient, radiation-induced thyroid failure, LT4 25 mcg once daily) it was “about 10 pmol/L”; in assay [1] (setting [6]), 11 pmol/L; in assay [1] (setting [7]), 11.5 pmol/L; in assay [1] (setting [8]), 13 pmol/L. The FT4 worked out at 16 pmol/L in assay [1] (setting [9]); 17 pmol/L in assay [1] (setting [10]); 18 pmol/L in assay [1] (setting [11]); 15 pmol/L in assay [1] (setting [12]); 14 pmol/L in assay [1] (setting [13]); 12 pmol/L in assay [1] (setting [14]). In addition, the FT4 in assay [1] (setting [15]) is reported as 15 pmol/L; in assay [1] (setting [16]) it was 10.6 pmol/L; in assay [1] (setting [17]), 12 pmol/L; in assay [1] (setting [18]) it was 13 pmol/L; in assay [1] (setting [19]) it was 14 pmol/L; in assay [1] (setting [20]), 13 pmol/L. The FT4 in assay [1] (setting [21]) stood at 14 pmol/L; in assay [1] (setting [22]) it was 13 pmol/L. Besides, the clinical outcome in assay [2] is “euthyroidism and resolution of all their hypothyroid symptoms”. For the same molecule, the TSH is recorded as 9.05 mU/L in assay [3] (setting [4]); 0.12 mU/L in assay [3] (setting [5]); 4.34 mU/L in assay [3] (setting [6]); 8.64 mU/L in assay [3] (setting [7]); 6.67 mU/L in assay [3] (setting [8]); 1.10 mU/L in assay [3] (setting [9]). The TSH in assay [3] (setting [10]) stood at 0.99 mU/L; in assay [3] (setting [11]) it was 0.41 mU/L; in assay [3] (setting [12]) it was 2.65 mU/L; in assay [3] (setting [13]), 1.72 mU/L; in assay [3] (setting [14]), 4.96 mU/L; in assay [3] (setting [15]), 2.20 mU/L. For the same molecule, the TSH in assay [3] (setting [16]) came to 8.71 mU/L; in assay [3] (setting [17]) it was 2.43 mU/L; in assay [3] (setting [18]) it was 1.48 mU/L; in assay [3] (setting [19]), 2.18 mU/L; in assay [3] (setting [20]), 2.32 mU/L; in assay [3] (setting [21]) it was 3.03 mU/L. This molecule also returned a TSH in assay [3] (setting [22]) of 3.12 mU/L.
As for `CCOC(=O)n1ccn(C)c1=S` [CMZ, carbimazole], the FT4 in assay [1] (setting [23]) is on record as 53.3 pmol/L; in assay [1] (setting [24]) it was 12.5 pmol/L; in assay [1] (setting [25]) it was 31.3 pmol/L; in assay [1] (setting [26]) it was 11 pmol/L. Further, the TSH in assay [3] (setting [23]) is less than 0.01 mU/L; in assay [3] (setting [24]), less than 0.01 mU/L; in assay [3] (setting [25]) it was 0.005 mU/L; in assay [3] (setting [26]), 0.02 mU/L.
